Laboratory results taken from patent US9593149B2, “Amylin and calcitonin receptor agonist” (Novo Nordisk A/S, priority 2014, dated 2017).
≈ marks a conversion by molar mass, not a printed value. Numbered stars: 1 amine (or outer) side, 2 acyl side, 3 side chain; on linkers, the order of the positions; unused ones are H or OH. Peptide text beside a SMILES is read from it. * marks the point of attachment. C20 diacid = O=C(O)CCCCCCCCCCCCCCCCCCC(=O)*; C18 diacid = O=C(O)CCCCCCCCCCCCCCCCC(=O)*; γGlu = O=C(O)[C@H](CCC(=O)[*:2])N[*:1]; Palmitoyl = CCCCCCCCCCCCCCCC(=O)*

Assay: Assay (IV) determination of solubility
Format: physicochemical
Method: Assay (IV)—Determination of Solubility
The mimylin peptide was dissolved in water at ˜500 nmol/ml and mixed 1:1 with a series of buffers (100 mM glycylglycine pH 3.0, 100 mM glycylglycine pH 4.0, 100 mM glycylglycine pH 5.0, 100 mM bistrispropane pH 6.0, 100 mM bistrispropane pH 6.5, 100 mM bistrispropane pH 7.0, 100 mM bistrispropane pH 7.5, 100 mM bistrispropane pH 8.0).

Solubility (pH 3.0) | solubility at 18 h (pH 4.0) | Solubility (pH 5.0) | Solubility (pH 6.0) | Solubility (pH 6.5) | Solubility (pH 7.0) | Solubility (pH 7.5) | Solubility (pH 8.0) | Solubility (pH 4.0) | Solubility (pH 3) | Solubility (pH 4) | Solubility (pH 5) | Solubility (pH 6) | Solubility (pH 7) | Solubility (pH 8) | solubility at 18 h (pH 5.0) | Compound
≧200 μM | 18 µM (≈ 67.9 µg/mL) | ≧200 μM | ≧200 μM | ≧200 μM | ≧200 μM | ≧200 μM | ≧200 μM | – | – | – | – | – | – | – | – | CC[C@H](C)[C@H](NC(=O)[C@H](C)NC(=O)[C@@H](NC(=O)[C@H](CO)NC(=O)[C@@H](NC(=O)[C@H](CCC(=O)O)NC(=O)[C@H](CO)NC(=O)[C@H](C)NC(=O)[C@H](CCC(=O)O)NC(=O)CCCCCCCCCCCCCCCCC(=O)O)[C@@H](C)CC)[C@@H](C)O)C(=O)N[C@H](C(=O)NCC(=O)N[C@@H](CCCNC(=N)N)C(=O)N[C@@H](CC(C)C)C(=O)N[C@@H](CO)C(=O)N[C@@H](C)C(=O)N[C@@H](CCC(=O)O)C(=O)N[C@@H](CC(C)C)C(=O)N[C@@H](Cc1cnc[nH]1)C(=O)N[C@@H](CCC(=O)O)C(=O)N[C@@H](CC(C)C)C(=O)N[C@@H](C)C(=O)N[C@H](C(=O)N[C@@H](CC(C)C)C(=O)N1CCC[C@H]1C(=O)N[C@@H](CCCNC(=N)N)C(=O)N[C@H](C(=O)N[C@@H](CCC(=O)O)C(=O)N[C@H](C(=O)NCC(=O)N1CCC[C@H]1C(=O)N[C@@H](CCC(=O)O)C(=O)N[C@@H](CO)C(=O)N1CCC[C@H]1C(N)=O)[C@@H](C)O)[C@@H](C)O)[C@@H](C)O)[C@@H](C)CC [compound 37, [N-terminal(C18 diacid), 5I, 9I, 10I]mimylin] ({C18 diacid}-EASEISTAIIGRLSAELHELATLPRTETGPESP-NH2)
≧200 μM | 28 µM (≈ 109 µg/mL) | ≧200 μM | ≧200 μM | ≧200 μM | ≧200 μM | ≧200 μM | ≧200 μM | – | – | – | – | – | – | – | – | CC(C)C[C@H](NC(=O)CNC(=O)[C@H](CO)NC(=O)[C@H](C)NC(=O)CC[C@H](NC(=O)CCCCCCCCCCCCCCCCCCC(=O)O)C(=O)O)C(=O)N[C@@H](CO)C(=O)N[C@H](C(=O)N[C@@H](C)C(=O)N[C@H](C(=O)N[C@@H](CC(C)C)C(=O)NCC(=O)N[C@@H](CCCNC(=N)N)C(=O)N[C@@H](CC(C)C)C(=O)N[C@@H](CO)C(=O)N[C@@H](CCC(N)=O)C(=O)N[C@@H](CCC(=O)O)C(=O)N[C@@H](CC(C)C)C(=O)N[C@@H](Cc1cnc[nH]1)C(=O)N[C@@H](CCC(=O)O)C(=O)N[C@@H](CC(C)C)C(=O)N[C@@H](CCC(N)=O)C(=O)N[C@H](C(=O)N[C@@H](Cc1ccc(O)cc1)C(=O)N1CCC[C@H]1C(=O)N1CCC[C@H]1C(=O)N[C@H](C(=O)N[C@@H](CCC(=O)O)C(=O)N[C@H](C(=O)NCC(=O)N[C@@H](CO)C(=O)N[C@@H](CCC(N)=O)C(=O)N[C@H](C(=O)N[C@@H](Cc1ccc(O)cc1)C(N)=O)[C@@H](C)O)[C@@H](C)O)[C@@H](C)O)[C@@H](C)O)C(C)C)[C@@H](C)O [compound 125, [N-terminal(C20 diacid-gGlu), des1, 4G, 9V, 15Q, 21Q, 23Y, 25P, 30S, 31Q, 32T, 33Y]mimylin] ({C20 diacid-γGlu}-ASGLSTAVLGRLSQELHELQTYPPTETGSQTY-NH2)
≧200 μM | – | ≧200 μM | ≧200 μM | ≧200 μM | ≧200 μM | ≧200 μM | ≧200 μM | ≧200 μM | – | – | – | – | – | – | – | CCCCCCCCCCCCCCCC(=O)N[C@@H](CCC(=O)O)C(=O)N[C@@H](C)C(=O)N[C@@H](CO)C(=O)N[C@@H](CCC(=O)O)C(=O)N[C@@H](CC(C)C)C(=O)N[C@@H](CO)C(=O)N[C@H](C(=O)N[C@@H](C)C(=O)N[C@@H](C)C(=O)N[C@@H](CC(C)C)C(=O)NCC(=O)N[C@@H](CCCNC(=N)N)C(=O)N[C@@H](CC(C)C)C(=O)N[C@@H](CO)C(=O)N[C@@H](C)C(=O)N[C@@H](CCC(=O)O)C(=O)N[C@@H](CC(C)C)C(=O)N[C@@H](Cc1cnc[nH]1)C(=O)N[C@@H](CCC(=O)O)C(=O)N[C@@H](CC(C)C)C(=O)N[C@@H](C)C(=O)N[C@H](C(=O)N[C@@H](CC(C)C)C(=O)N1CCC[C@H]1C(=O)N[C@@H](CCCNC(=N)N)C(=O)N[C@H](C(=O)N[C@@H](CCC(=O)O)C(=O)N[C@H](C(=O)NCC(=O)N1CCC[C@H]1C(=O)N[C@@H](CCC(=O)O)C(=O)N[C@@H](CO)C(=O)N1CCC[C@H]1C(N)=O)[C@@H](C)O)[C@@H](C)O)[C@@H](C)O)[C@@H](C)O [compound 7, [N-terminal(C16)]mimylin] (Palmitoyl-EASELSTAALGRLSAELHELATLPRTETGPESP-NH2)
≧200 μM | – | ≧200 μM | ≧200 μM | ≧200 μM | ≧200 μM | ≧200 μM | ≧200 μM | ≧200 μM | – | – | – | – | – | – | – | CC(C)C[C@H](NC(=O)[C@H](C)NC(=O)[C@H](CC(C)C)NC(=O)[C@@H](NC(=O)[C@H](CO)NC(=O)[C@H](CC(C)C)NC(=O)[C@H](CCC(=O)O)NC(=O)[C@H](CO)NC(=O)[C@H](C)NC(=O)[C@H](CCC(=O)O)NC(=O)CCCCCCCCCCCCCCCCC(=O)O)[C@@H](C)O)C(=O)NCC(=O)N[C@@H](CCCNC(=N)N)C(=O)N[C@@H](CC(C)C)C(=O)N[C@@H](CO)C(=O)N[C@@H](C)C(=O)N[C@@H](CCC(=O)O)C(=O)N[C@@H](CC(C)C)C(=O)N[C@@H](Cc1cnc[nH]1)C(=O)N[C@@H](CCC(=O)O)C(=O)N[C@@H](CC(C)C)C(=O)N[C@@H](C)C(=O)N[C@H](C(=O)N[C@@H](CC(C)C)C(=O)N1CCC[C@H]1C(=O)N[C@@H](CCCNC(=N)N)C(=O)N[C@H](C(=O)N[C@@H](CCC(=O)O)C(=O)N[C@H](C(=O)NCC(=O)N1CCC[C@H]1C(=O)N[C@@H](CCC(=O)O)C(=O)N[C@@H](CO)C(=O)N1CCC[C@H]1C(N)=O)[C@@H](C)O)[C@@H](C)O)[C@@H](C)O [compound 15, [N-terminal(C18 diacid), 8L]mimylin] ({C18 diacid}-EASELSTLALGRLSAELHELATLPRTETGPESP-NH2)
– | – | – | – | ≧200 μM | – | ≧200 μM | – | – | ≧200 μM | ≧200 μM | ≧200 μM | ≧200 μM | ≧200 μM | ≧200 μM | – | CC(C)C[C@H](NC(=O)[C@H](C)NC(=O)[C@H](C)NC(=O)[C@@H](NC(=O)[C@H](CO)NC(=O)[C@H](CC(C)C)NC(=O)[C@H](CCC(N)=O)NC(=O)[C@H](CO)NC(=O)[C@H](C)NC(=O)CC[C@H](NC(=O)CCCCCCCCCCCCCCCCC(=O)O)C(=O)O)[C@@H](C)O)C(=O)NCC(=O)N[C@@H](CCCNC(=N)N)C(=O)N[C@@H](CC(C)C)C(=O)N[C@@H](CO)C(=O)N[C@@H](C)C(=O)N[C@@H](CCC(N)=O)C(=O)N[C@@H](CC(C)C)C(=O)N[C@@H](Cc1cnc[nH]1)C(=O)N[C@@H](CCC(=O)O)C(=O)N[C@@H](CC(C)C)C(=O)N[C@@H](C)C(=O)N[C@H](C(=O)N[C@@H](CC(C)C)C(=O)N1CCC[C@H]1C(=O)N[C@@H](CCCNC(=N)N)C(=O)N[C@H](C(=O)N[C@@H](CCC(=O)O)C(=O)N[C@H](C(=O)NCC(=O)N[C@@H](CO)C(=O)NCC(=O)N[C@@H](CO)C(=O)N1CCC[C@H]1C(N)=O)[C@@H](C)O)[C@@H](C)O)[C@@H](C)O [compound 87, [N-terminal(C18 diacid-gGlu), des1, 4Q, 16Q, 30S, 31G]mimylin] ({C18 diacid-γGlu}-ASQLSTAALGRLSAQLHELATLPRTETGSGSP-NH2)
≧200 μM | – | ≧200 μM | ≧200 μM | ≧200 μM | ≧200 μM | ≧200 μM | ≧200 μM | ≧200 μM | – | – | – | – | – | – | – | CC(C)C[C@H](NC(=O)[C@H](C)NC(=O)[C@H](C)NC(=O)[C@@H](NC(=O)[C@H](CO)NC(=O)[C@H](CC(C)C)NC(=O)[C@H](CCC(=O)O)NC(=O)[C@H](CO)NC(=O)[C@H](C)NC(=O)CC[C@H](NC(=O)CCCCCCCCCCCCCCCCCCC(=O)O)C(=O)O)[C@@H](C)O)C(=O)NCC(=O)N[C@@H](CCCNC(=N)N)C(=O)N[C@@H](CC(C)C)C(=O)N[C@@H](CO)C(=O)N[C@@H](CCC(=O)O)C(=O)N[C@@H](CCC(=O)O)C(=O)N[C@@H](CC(C)C)C(=O)N[C@@H](Cc1cnc[nH]1)C(=O)N[C@@H](CCC(=O)O)C(=O)N[C@@H](CC(C)C)C(=O)N[C@@H](C)C(=O)N[C@H](C(=O)N[C@@H](CC(C)C)C(=O)N1CCC[C@H]1C(=O)N[C@@H](CCCNC(=N)N)C(=O)N[C@H](C(=O)N[C@@H](CCC(=O)O)C(=O)N[C@H](C(=O)NCC(=O)N[C@@H](CO)C(=O)NCC(=O)N[C@@H](CO)C(=O)N1CCC[C@H]1C(N)=O)[C@@H](C)O)[C@@H](C)O)[C@@H](C)O [compound 66, [N-terminal(C20 diacid-gGlu), des1, 15E, 30S, 31G]mimylin] ({C20 diacid-γGlu}-ASELSTAALGRLSEELHELATLPRTETGSGSP-NH2)
≧200 μM | 94 µM (≈ 351 µg/mL) | – | ≧200 μM | ≧200 μM | ≧200 μM | ≧200 μM | ≧200 μM | – | – | – | – | – | – | – | 35 µM (≈ 131 µg/mL) | CC[C@H](C)[C@H](NC(=O)[C@H](CCC(=O)O)NC(=O)[C@H](CO)NC(=O)[C@H](C)NC(=O)[C@H](CCC(=O)O)NC(=O)CCCCCCCCCCCCCCCCC(=O)O)C(=O)N[C@@H](CO)C(=O)N[C@H](C(=O)N[C@@H](C)C(=O)N[C@@H](C)C(=O)N[C@@H](CC(C)C)C(=O)NCC(=O)N[C@@H](CCCNC(=N)N)C(=O)N[C@@H](CC(C)C)C(=O)N[C@@H](CO)C(=O)N[C@@H](C)C(=O)N[C@@H](CCC(=O)O)C(=O)N[C@@H](CC(C)C)C(=O)N[C@@H](Cc1cnc[nH]1)C(=O)N[C@@H](CCC(=O)O)C(=O)N[C@@H](CC(C)C)C(=O)N[C@@H](C)C(=O)N[C@H](C(=O)N[C@@H](CC(C)C)C(=O)N1CCC[C@H]1C(=O)N[C@@H](CCCNC(=N)N)C(=O)N[C@H](C(=O)N[C@@H](CCC(=O)O)C(=O)N[C@H](C(=O)NCC(=O)N1CCC[C@H]1C(=O)N[C@@H](CCC(=O)O)C(=O)N[C@@H](CO)C(=O)N1CCC[C@H]1C(N)=O)[C@@H](C)O)[C@@H](C)O)[C@@H](C)O)[C@@H](C)O [Ex. #8, [N-terminal(C18 diacid), 5I]mimylin] ({C18 diacid}-EASEISTAALGRLSAELHELATLPRTETGPESP-NH2)
